# Tests used:
# rat [1] = test: Partial sciatic nerve ligation (Seltzer operation) mechanical hyperalgesia (Randall-Selitto test); assay type: in vivo; conditions: 100 μg/kg p.o., 60 min; 7 days after partial sciatic nerve ligation; Randall-Sellitto test
# Protocol: Wistar rats were anaesthetised with sodium-pentobarbital (Euthasol, 50 mg/kg i.p.). The common sciatic nerve was exposed unilaterally on the right side high in the thigh and ⅓-½ of the nerve trunk was carefully separated and tightly ligated using a siliconised silk suture (Ethicone 9-0). Then the wound was closed and the animals were allowed to survive for 7 days (Seltzer et al., 1990). During this period, signs of spontaneous pain (holding the legs in elevated position), mechanical hyperalgesia and allodynia developed.
# Mechanonociceptive threshold of the hindpaws was measured with analgesimetry (Randall-Sellitto test) and touch sensitivity of the plantar surface with dynamic plantar aesthesiometry on the same animals. Hyperalgesia (decrease of the mechanonociceptive threshold) and allodynia (decrease of touch sensitivity) were expressed in % compared to the initial pre-operation control values. Significant decrease of the mechanonociceptive thresholds, as well as touch sensitivity thresholds developed 7 days after the surgery (Szolcsanyi et al. 2003; Sandor et al. 2006). […]
# b) The mechanonociceptive thresholds of the hindpaw was measured with the Ugo Basile Analgesimeter (7210, Comerio, Italy; Randall-Selitto test). […] The threshold force which elicited withdrawal was read on an analog scale calibrated in grams. […]
# [2] = system: sensory nerve terminals of isolated rat tracheae; test: Electrical field stimulation-induced release of CGRP from sensory nerve terminals of isolated rat tracheae; conditions: 500 nM; absolute release = stimulated + post-stimulated fractions minus basal release
# Protocol: Rats were exsanguinated in deep anaesthesia (sodium thiopental, 50 mg/kg i.p.), then the whole trachea was removed and cleaned of fat and adhering connective tissues. Tracheae from two rats were placed into the same 1.8 ml organ bath to obtain sufficient amount of released peptide and perfused (1 ml/min) with pH—(7.2) controlled oxygenized Krebs solution for 60 minutes (equilibration period) at 37° C. temperature. After discontinuation of the flow, the solution was changed three times for 8 minutes to produce pre-stimulated, stimulated, post-stimulated fractions. Electrical field stimulation (40 V, 0.1 ms, 10 Hz for 120 s; 1200 pulses) was performed to elicit neurotransmitter release at the beginning of the second 8-minute period. […]
# CGRP concentration was determined from 400-400 μl samples of the organ bath solutions by means of a selective and sensitive radioimmunoassay method developed in our laboratories and described in details in several previous papers (Nemeth et al. 1998, 1999, 2006; Helyes et al., 1997, 2001, 2006; Borzsei et al., 2008). The released amount of the peptides was calculated as fmol peptide per mg wet tissue (trachea). The absolute EFS-induced CGRP outflow in each experiment was calculated by taking off the basal release measured in the first (pre-stimulated) fraction from the second and third 8-min fractions and then adding these values. […]
# rat [3] = test: Plantar incision-induced mechanical allodynia (dynamic plantar aesthesiometer), postoperative pain model; assay type: in vivo; conditions: 100 μg/kg p.o., measured 60 min later; one day after plantar incision; dynamic plantar aesthesiometry
# Protocol: Rats were anaesthesized with sodium-pentobarbital (Euthasol, 40 mg/kg i.p.) and a 1 cm longitudinal incision was made through the skin, fascia and muscle of the plantar aspect of the hindpaw. Significant decrease of both the thermonociceptive and mechanonociceptive thresholds (heat and mechanical allodynia) of the paw develops 1 day after this procedure.
# One hundred and forty five (145) female Wistar rats (150-250 g) kept in the Animal House of the University of Pecs in a temperature-controlled room provided with a 12-hour light-dark cycle, standard rat chow and water ad libitum were used in this experimental series. They were brought to the air-conditioned laboratory the day before the experiment started. Throughout the total study the same assistant handled all the animals. […] Touch sensitivity was measured with a dynamic plantar aesthesiometer (DPA) and the thermonociceptive threshold was determined with an increasing temperature water-bath (ITWB) on the same rats (see below). […] Test compounds were administered p.o. and post-dose touch sensitivity and thermonociceptive thresholds were measured 60 min later. […]
# a) Touch sensitivity of the plantar surface of the paw was measured with the Ugo Basile Dynamic Plantar Aesthesiometer (DPA; 37400, Comerio, Italy), which is an electronic von Frey device. […]
# rat [4] = test: Mustard oil-induced acute neurogenic inflammation in the paw skin of the rat (Evans blue leakage); assay type: in vivo; conditions: 100 μg/kg p.o. 60 min before 1% mustard oil; vs vehicle-treated control; listed as BST-1693
# Protocol: Deep anaesthesia was performed with sodium-thiopental (50 mg/kg i.p.). Both hindlegs of the rats were acutely denervated (the sciatic and the saphenous nerves were cut 30 min before the induction of inflammation) to avoid the influence of reflex mechanisms. Inflammation in the dorsal skin of the hindpaws was evoked by topical application of 1% mustard oil dissolved in paraffin oil. This compound selectively activates capsaicin-sensitive peptidergic fibres through the TRPA1 ion channel, therefore induces acute inflammatory reaction with exclusively neurogenic mechanisms via the release of pro-inflammatory sensory neuropeptides, such as substance P and CGRP. Extravasation of plasma albumin was measured by the Evans blue leakage method (see FIG. 2). Evans blue (50 mg/kg) which binds to plasma albumine, was injected i.v. and neurogenic inflammation was induced 5 min later. […] The amount of the accumulated Evans blue, which quantitatively correlates with the intensity of plasma extravasation, was expressed as μg dye/g wet skin (Helyes et at, 1997, 2001, 2006; Borzsei et al., 2008). […]
# Extravasation of plasma albumin in the dorsal skin of the hindpaws was measured by the Evans blue leakage method. […] The skin of the hindpaws was removed, their weight was measured and the extravasated dye was extracted with formamide at room temperature during 72 h for photometric determination at 620 nm. […]
melting point,SMILES,reduction of mechanical hyperalgesia (rat [1]),inhibition on the absolute CGRP release [2],decrease of mechanical allodynia (rat [3]),inhibition of acute neurogenic inflammatory response (Evans blue accumulation in hindpaw skin) (rat [4])
205 to 207 °C,"Cc1c(C)n(Cc2ccccc2)c2ncnc(NCCc3cccc(Cl)c3)c12 [Example 39, (7-Benzyl-5,6-dimethyl-7H-pyrrolo[2,3-d]pyrimidin-4-yl)-[2-(3-chloro-phenyl)-ethyl]-amine]",31%,,,
132.7 to 133.7 °C,"CC(=O)Nc1ccc(CCNc2ncnc3c2c(C)c(C)n3CCCN(C)C)cc1 [Example 51, N-(4-{2-[7-(3-Dimethylamino-propyl)-5,6-dimethyl-7H-pyrrolo[2,3-d]pyrimidin-4-ylamino]-ethyl}-phenyl)-acetamide]",,79.55%,63%,
198 to 199 °C,"Cc1c(C)n(Cc2ccccc2)c2ncnc(NCCc3ccc(O)cc3)c12 [Example 4, 4-[2-(7-Benzyl-5,6-dimethyl-7H-pyrrolo[2,3-d]pyrimidin-4-ylamino)-ethyl]-phenol]",46%,,,
150.7 to 151.8 °C,"Cc1c(C)n(Cc2ccccc2)c2ncnc(NCCc3ccc(N)cc3)c12 [Example 1, [2-(4-Amino-phenyl)-ethyl]-(7-benzyl-5,6-dimethyl-7H-pyrrolo[2,3-d]pyrimidin-4-yl)-amine]",,,,70.4%
